According to US20210169824A1, “USE OF CANNABINOIDS IN THE TREATMENT OF SEIZURES AS ASSOCIATED WITH LENNOX-GASTAUT SYNDROME” (GW Research Limited, priority 2017, published 2021):

Experiments:
[1] = patients with epilepsy, open label study, Gaston et al. 2017; cited from earlier work
[2] = system: seizures associated with Lennox-Gastaut syndrome (LGS) in treatment-resistant patients; test: Pooled analysis of two randomised, double-blind, placebo-controlled 14-week studies of add-on cannabidiol in LGS patients deemed AED treatment failures; assay type: in vivo, human; conditions: for Total Seizure Frequency, Treatment Difference vs. Placebo / Drop Seizure Frequency, Treatment Difference vs. Placebo: Hodges-Lehmann estimated median difference; for Drop Seizure Frequency, Median % Change During Treatment / Total Seizure Frequency, Median % Change During Treatment: from baseline
Text: In two placebo-controlled studies of CBD as a treatment for seizures associated with LGS, cannabidiol was used as add-on treatment in patients who were defined as treatment-resistant. Patients had previously tried and stopped using a median of 6 AEDs, and were being maintained on a median of 3 AEDs.
The first study was a 1:1 randomised, double-blind, 14-week comparison of cannabidiol oral solution (CBD-OS) versus placebo. The treatment period consisted of a two-week titration period followed by a 12-week maintenance period. The treatment period was followed by a 10-day taper period and a four-week follow-up period. The study aimed to determine the efficacy, safety and tolerability of 20 mg/kg/day cannabidiol compared with placebo.
The second study was a 1:1:1 randomised, double-blind, 14-week comparison of two dose levels of cannabidiol (10 mg/kg/day and 20 mg/kg/day) versus placebo. The treatment period consisted of a two-week titration period followed by a 12-week maintenance period. The treatment period was followed by a 10-day taper period and a four-week follow-up period. The study aimed to determine the efficacy, safety and tolerability of two dose levels of CBD-OS compared with placebo. Patients in the placebo group were split into two equivalent cohorts; half receiving 10 mg/kg/day dosing volumes and half receiving 20 mg/kg/day dosing volumes.
In order to ensure that caregivers were able to interpret a seizure correctly, all caregivers underwent pre-study training, and their description and classification of a seizure was independently verified by a committee appointed by the Epilepsy Study Consortium
Despite the number of medications, the patients were already taking, the median number of drop seizures at baseline was in excess of 75 per month in both studies. These were patient populations with a high unmet medical need, who had already tried and failed multiple AEDs. In many cases, the AEDs they were being maintained on included those approved for the treatment of LGS; rufinamide, lamotrigine or topiramate.
An analysis of the change in seizure frequency for CBD vs placebo in patients who were currently taking, or had previously taken and stopped, each of rufinamide, lamotrigine or topiramate; felbamate was undertaken. Such patients can be reasonably defined as AED treatment failures.

[3] = Felbamate treatment failures, 10 mg/kg/day, N = 22
[4] = Felbamate treatment failures, 10 mg/kg/day, N = 22, P-value 0.1921 vs placebo
[5] = Felbamate treatment failures, 20 mg/kg/day, N = 38
[6] = Felbamate treatment failures, 20 mg/kg/day, N = 38, P-value 0.0068 vs placebo
[7] = Lamotrigine treatment failures, 10 mg/kg/day, N = 49
[8] = Lamotrigine treatment failures, 10 mg/kg/day, N = 49, P-value 0.0131 vs placebo
[9] = Lamotrigine treatment failures, 20 mg/kg/day, N = 114
[10] = Lamotrigine treatment failures, 20 mg/kg/day, N = 114, P-value <0.0001 vs placebo
[11] = Rufinamide treatment failures, 10 mg/kg/day, N = 47
[12] = Rufinamide treatment failures, 10 mg/kg/day, N = 47, P-value 0.1836 vs placebo
[13] = Rufinamide treatment failures, 20 mg/kg/day, N = 95
[14] = Rufinamide treatment failures, 20 mg/kg/day, N = 95, P-value 0.0011 vs placebo
[15] = Topiramate treatment failures, 10 mg/kg/day, N = 56
[16] = Topiramate treatment failures, 10 mg/kg/day, N = 56, P-value 0.0517 vs placebo
[17] = Topiramate treatment failures, 20 mg/kg/day, N = 111
[18] = Topiramate treatment failures, 20 mg/kg/day, N = 111, P-value 0.0016 vs placebo
[19] = felbamate treatment failures, 20 mg/kg dose
[20] = lamotrigine treatment failures, both doses (10 and 20 mg/kg/day)
[21] = rufinamide treatment failures, 20 mg/kg/day dose

C=C(C)[C@@H]1CCC(C)=C[C@H]1c1c(O)cc(CCCCC)cc1O [Cannabidiol]
serum levels of some AEDs in the presence of CBD [1]: increased
reduction in drop and total seizure frequency in patients deemed to be treatment failures ([2]; CBD combined with rufinamide, lamotrigine, topiramate or felbamate): statistically significant reduction
Total Seizure Frequency, Treatment Difference vs. Placebo ([2]; Felbamate treatment failures, 10 mg/kg/day, P-value 0.0282): −21.77%
Drop Seizure Frequency, Treatment Difference vs. Placebo ([2]; Felbamate treatment failures, 10 mg/kg/day, P-value 0.2984): −11.57%
Drop Seizure Frequency, Treatment Period Median [2, 3]: 68.26 per 28 Days
Total Seizure Frequency, Treatment Period Median [2, 3]: 103.09 per 28 Days
Number of Responders, ≥50% Reduction in Drop Seizure Frequency from Baseline [2, 4]: 6
Responders (%), ≥50% Reduction in Drop Seizure Frequency from Baseline [2, 4]: 27.3%
Drop Seizure Frequency, Median % Change During Treatment [2, 3]: −30.50%
Total Seizure Frequency, Median % Change During Treatment [2, 3]: −34.36%
Drop Seizure Frequency, Treatment Difference vs. Placebo ([2]; Felbamate treatment failures, 20 mg/kg/day, P-value 0.0930): −17.76%
Total Seizure Frequency, Treatment Difference vs. Placebo ([2]; Felbamate treatment failures, 20 mg/kg/day, P-value 0.1179): −14.58%
Drop Seizure Frequency, Treatment Period Median [2, 5]: 47.32 per 28 Days
Total Seizure Frequency, Treatment Period Median [2, 5]: 102.20 per 28 Days
Number of Responders, ≥50% Reduction in Drop Seizure Frequency from Baseline [2, 6]: 15
Responders (%), ≥50% Reduction in Drop Seizure Frequency from Baseline [2, 6]: 39.5%
Drop Seizure Frequency, Median % Change During Treatment [2, 5]: −31.62%
Total Seizure Frequency, Median % Change During Treatment [2, 5]: −27.56%
Drop Seizure Frequency, Treatment Difference vs. Placebo ([2]; Lamotrigine treatment failures, 10 mg/kg/day, P-value 0.0040): −18.79%
Total Seizure Frequency, Treatment Difference vs. Placebo ([2]; Lamotrigine treatment failures, 10 mg/kg/day, P-value 0.0044): −19.63%
Drop Seizure Frequency, Treatment Period Median [2, 7]: 40.29 per 28 Days
Total Seizure Frequency, Treatment Period Median [2, 7]: 68.41 per 28 Days
Number of Responders, ≥50% Reduction in Drop Seizure Frequency from Baseline [2, 8]: 17
Responders (%), ≥50% Reduction in Drop Seizure Frequency from Baseline [2, 8]: 34.7%
Drop Seizure Frequency, Median % Change During Treatment [2, 7]: −37.16%
Total Seizure Frequency, Median % Change During Treatment [2, 7]: −32.87%
Total Seizure Frequency, Treatment Difference vs. Placebo ([2]; Lamotrigine treatment failures, 20 mg/kg/day, P-value 0.0008): −17.35%
Drop Seizure Frequency, Treatment Difference vs. Placebo ([2]; Lamotrigine treatment failures, 20 mg/kg/day, P-value 0.0023): −19.24%
Drop Seizure Frequency, Treatment Period Median [2, 9]: 36.30 per 28 Days
Total Seizure Frequency, Treatment Period Median [2, 9]: 98.64 per 28 Days
Number of Responders, ≥50% Reduction in Drop Seizure Frequency from Baseline [2, 10]: 47
Responders (%), ≥50% Reduction in Drop Seizure Frequency from Baseline [2, 10]: 41.2%
Drop Seizure Frequency, Median % Change During Treatment [2, 9]: −40.74%
Total Seizure Frequency, Median % Change During Treatment [2, 9]: −34.44%
Total Seizure Frequency, Treatment Difference vs. Placebo ([2]; Rufinamide treatment failures, 10 mg/kg/day, P-value 0.0062): −17.54%
Drop Seizure Frequency, Treatment Difference vs. Placebo ([2]; Rufinamide treatment failures, 10 mg/kg/day, P-value 0.1314): −9.80%
Drop Seizure Frequency, Treatment Period Median [2, 11]: 56.00 per 28 Days
Total Seizure Frequency, Treatment Period Median [2, 11]: 95.51 per 28 Days
Number of Responders, ≥50% Reduction in Drop Seizure Frequency from Baseline [2, 12]: 13
Responders (%), ≥50% Reduction in Drop Seizure Frequency from Baseline [2, 12]: 27.7%
Drop Seizure Frequency, Median % Change During Treatment [2, 11]: −32.95%
Total Seizure Frequency, Median % Change During Treatment [2, 11]: −31.25%
Total Seizure Frequency, Treatment Difference vs. Placebo ([2]; Rufinamide treatment failures, 20 mg/kg/day, P-value 0.0008): −19.43%
Drop Seizure Frequency, Treatment Difference vs. Placebo ([2]; Rufinamide treatment failures, 20 mg/kg/day, P-value 0.0022): −19.34%
Drop Seizure Frequency, Treatment Period Median [2, 13]: 42.30 per 28 Days
Total Seizure Frequency, Treatment Period Median [2, 13]: 102.20 per 28 Days
Number of Responders, ≥50% Reduction in Drop Seizure Frequency from Baseline [2, 14]: 37
Responders (%), ≥50% Reduction in Drop Seizure Frequency from Baseline [2, 14]: 38.9%
Drop Seizure Frequency, Median % Change During Treatment [2, 13]: −38.78%
Total Seizure Frequency, Median % Change During Treatment [2, 13]: −34.90%
Total Seizure Frequency, Treatment Difference vs. Placebo ([2]; Topiramate treatment failures, 10 mg/kg/day, P-value 0.0047): −17.04%
Drop Seizure Frequency, Treatment Difference vs. Placebo ([2]; Topiramate treatment failures, 10 mg/kg/day, P-value 0.0074): −16.92%
Drop Seizure Frequency, Treatment Period Median [2, 15]: 57.02 per 28 Days
Total Seizure Frequency, Treatment Period Median [2, 15]: 88.31 per 28 Days
Number of Responders, ≥50% Reduction in Drop Seizure Frequency from Baseline [2, 16]: 17
Responders (%), ≥50% Reduction in Drop Seizure Frequency from Baseline [2, 16]: 30.4%
Drop Seizure Frequency, Median % Change During Treatment [2, 15]: −36.08%
Total Seizure Frequency, Median % Change During Treatment [2, 15]: −31.57%
Total Seizure Frequency, Treatment Difference vs. Placebo ([2]; Topiramate treatment failures, 20 mg/kg/day, P-value 0.0034): −15.87%
Drop Seizure Frequency, Treatment Difference vs. Placebo ([2]; Topiramate treatment failures, 20 mg/kg/day, P-value 0.0069): −16.83%
Drop Seizure Frequency, Treatment Period Median [2, 17]: 44.00 per 28 Days
Total Seizure Frequency, Treatment Period Median [2, 17]: 101.71 per 28 Days
Number of Responders, ≥50% Reduction in Drop Seizure Frequency from Baseline [2, 18]: 40
Responders (%), ≥50% Reduction in Drop Seizure Frequency from Baseline [2, 18]: 36.0%
Drop Seizure Frequency, Median % Change During Treatment [2, 17]: −34.13%
Total Seizure Frequency, Median % Change During Treatment [2, 17]: −33.76%
proportion of patients with a 50% reduction in drop seizure frequency compared with placebo [2, 19]: statistically significantly greater proportion
reduction in drop seizure frequency compared with placebo [2, 19]: marginally statistically significantly greater reduction
proportion of patients with a 50% reduction in drop seizure frequency compared with placebo [2, 20]: significantly greater proportion
reduction in both drop and total seizure frequency compared with placebo [2, 20]: significantly greater reduction
benefit in patients taking without seizure control, or having stopped, the AEDs authorised for LGS in the EU ([2]; pooled data from two studies, effect most significant at 20 mg/kg/day): significant benefit
proportion of patients with a 50% reduction in drop seizure frequency compared with placebo [2, 21]: significantly greater proportion
reduction in drop and total seizure frequency compared with placebo [2, 21]: significantly greater reduction
reduction in both drop and total seizure frequency compared with placebo ([2]; topiramate treatment failures, both doses (10 and 20 mg/kg/day)): significantly greater reduction
proportion of patients with a 50% reduction in drop seizure frequency compared with placebo ([2]; topiramate treatment failures, both doses, statistical significance for 20 mg/kg/day, only marginal for 10 mg/kg/day): greater proportion
